The test system of the test is HIV-1BAL strain in M type macrophage (M-MΦ) derived from human monocytes. Description: Proliferation of HIV-1 in M-MΦ: p24 protein in culture supernatant by sandwich ELISA. In kind it is cell-based. Particulars: HIV-1BAL; for viral production in M-MΦ at 30 μM: incubated for 10 days (FIGS. 21-25); for production of p24 protein in M-MΦ at various concentrations: incubated for 10 days, compared with DMSO (FIGS. 21-25); for p24 protein / viral proliferation in M-MΦ with kinase inhibitor: 10 μM, up to day 14, compared with control group (FIG. 20). On the procedure:
Macrophages derived from monocytes were prepared by culturing the recovered monocytes in the presence of M-CSF (macrophage colony-stimulating factor) (10^4 U/ml, provided by Morinaga Milk Co.), granulocytes and granulocyte-macrophage colony-stimulating factor, GM-CSF) (500 U/ml, provided by Japan Scheling Plough Co., Osaka, or purchased from R & S Genzyme-TECHNE Inc.) with RPMI1640 medium added with FCS10% (Nissui Seiyaku Co., Tokyo) for 7–8 days.
The macrophage prepared by differential induction of M-CSF from human monocytes is designated as M type macrophage (M type MΦ or M-MΦ) and the macrophage prepared by differential induction of GM-CSF from human monocytes is designated as GM type macrophage (GM type MΦ or GM-MΦ) Further, alveolar macrophage (alveolar MΦ or A-MΦ) was prepared as follows. Cells in the alveolar lavage liquid obtained from the alveolar lavage of healthy volunteers were recovered, suspended and adhered to plastics, then the non-adhered cells were washed out and the remained adhered cells were designated as the alveolar MΦ.
Infection of HIV-1 to macrophage was performed as follows. Macrophage directed viral strains, HIV-1JR-FL and HIV-1BAL, were infected for 2 hours in contact with M-MΦ, GM-MΦ and A-MΦ (adjusted to 2.5×10^5/well, Flacon No3043: Becton Dickinson Labware, Inc. U.S.)at low concentration (p24 antigen titer 50 ng/ml, TCID50=3000/ml virus to final concentration at 100 pg/ml), and non-adsorbed virus to the macrophage was washed out, and cultured with adding fresh medium. In case of the medium with M-MΦ, M-CSF was added (10^4 U/ml), and that of the medium with GM-MΦ, GM-CSF was added (500 U/ml).
Proliferation of virus was examined with the released viral particles in the culture supernatant after the infection by the sandwich ELISA using two types of anti-p24 antibody (Nu24 and 10B5^13). The following JAM62 and JAM65 were used as LTR (HIV long terminal repeat)-gap gene primer. The following JAM63 and JAM 64 were used as the internal primer for the nested PCR. • JAM62: • 5′-[…]-3′ (SEQ ID NO: 1) • JAM65: • 5′-[…]-3′ (SEQ ID NO: 2) • JAM63: • 5′-GTGTOACTCTGGTAACTAGAGATCC-3′ (SEQ ID NO: 3) • JAM64: • 5′-[…]-3′ (SEQ ID NO: 4) (1-4) Assay of Expression of Tyrosine Kinase Hck Protein and Transcription Factor C/EBPβ Protein
In order to show growth suppression effect of the present invention, among macrolide derivatives, EM, EM201, EM202, EM703, CAM, EM722, EM730, EM732, EM736, EM734, EM735, EM747, EM748, EM743, EM746, EM750 or EM751 was dissolved in DMSO with each 100 mM concentration, and used in dilution with the medium thereafter. A control group was M-MΦ treated only with DMSO used for dissolving macrolide derivatives.
M-MΦ and GM-M Φ were subjected to contact infection with HIV-1BAL strain for 2 hours, added 30 μM of EM, EM201, EM202, EM703, CAM,EM722, EM730, EM732, EM736, EM734, EM735, EM747, EM748, EM743, EM746, EM750 or EM751, incubated for 14 days and amount of p24 protein in the cultured supernatant was assayed in the time-dependent manner.

Entries after “also recorded” stand apart in the source; their conditions may differ.

Regarding `CCC(O)C(C)(O)C1OC(=O)C(C)C(O)C(C)C(OC2OC(C)CC(NC)C2O)C2(C)CC(C)=C(O2)C1C` (stereo not shown) [EM754, de(3-O-cladinosyl)-de(3′-N-methyl)-8,9-anhydro-pseudoerythromycin A 6,9-hemiketal], the “viral production in M-MΦ at 30 μM” value was “inhibit almost completely viral production; also recorded: almost complete inhibition” and the “production of p24 protein in M-MΦ at various concentrations” value (shortened to “production of p24 protein in M-MΦ”) is on record as “suppressed depending on the concentration of agent”.
With `C[S+]([O-])c1ccc(-c2nc(-c3ccc(F)cc3)c(-c3ccncc3)[nH]2)cc1` (stereo not shown) [SB203580, 4-[4-fluoro-phenyl]-2-[4-methylsulfinylphenyl]-5-[4-pyridyl]-1H-imidazole, reference compound], the “p24 protein / viral proliferation in M-MΦ with kinase inhibitor” value is listed as “no p24 protein was almost detected even on day 14”.
Regarding `CC[C@@H](O)[C@@](C)(O)[C@@H]1OC(=O)[C@H](C)[C@@H](O[C@H]2C[C@@](C)(OC)[C@@H](O)[C@H](C)O2)[C@H](C)[C@@H](O[C@@H]2O[C@H](C)C[C@H](NC(C)C)[C@H]2O)[C@@]2(C)CC(C)=C(O2)[C@@H]1C` [EM736, bis-de(3′-N-methyl)-3′-N-(2-propyl)-8,9-anhydro-pseudoerythromycin A 6,9-hemiketal], the “viral production in M-MΦ at 30 μM” value is listed as “inhibit almost completely viral production; also recorded: almost complete inhibition” and the “production of p24 protein in M-MΦ” value was “suppressed depending on the concentration of agent”.
`COC1(C)CC(OC2C(C)C(=O)OC(C(C)N)C(C)C3=C(C)CC(C)(O3)C(OC3OC(C)CC(N(C)C)C3O)C2C)OC(C)C1O` (stereo not shown) [EM750, de(12-hydroxy)-de[12-(1-hydroxypropyl)]-12-amino-8,9-anhydro-pseudoerythromycin A 6,9-hemiketal]: the “viral production in M-MΦ at 30 μM” value is given as “inhibit almost completely viral production; also recorded: almost complete inhibition” and the “production of p24 protein in M-MΦ” value is given as “suppressed depending on the concentration of agent”.
Take `COc1cccc(-c2cc(=O)c3ccccc3o2)c1N` [PD98059, 2-[2-amino-3-methoxyphenyl]-4H-1-benzopyran-4-one, reference compound]: the “p24 protein / viral proliferation in M-MΦ with kinase inhibitor” value is recorded as “amount of p24 protein was not different in the control group”.
As to “bis-de(3′-N-methyl)-3′-N-ethyl-8,9-anhydro-pseudo-erythromycin A 6,9-hemiketal [EM722]”, the “viral production in M-MΦ at 30 μM” value is reported as “inhibit almost completely viral production; also recorded: almost complete inhibition” and the “production of p24 protein in M-MΦ” value is recorded as “suppressed depending on the concentration of agent”.
Regarding `COC1(C)CC(OC2C(C)C(=O)OC(C(C)=NO)C(C)C3=C(C)CC(C)(O3)C(OC3OC(C)CC(N(C)C)C3O)C2C)OC(C)C1O` (stereo not shown) [EM743, de(12-hydroxy)-de[12-(1-hydroxypropyl)]-12-hydroxy-oxime-8,9-anhydro-pseudoerythromycin A 6,9-hemiketal], the “viral production in M-MΦ at 30 μM” value is given as “inhibit almost completely viral production; also recorded: almost complete inhibition” and the “production of p24 protein in M-MΦ” value is “suppressed depending on the concentration of agent”.
On to “de(3′-dimethylamino)-3′-[hexahydro-1(1H)-azepinyl]-8,9-anhydro-pseudoerythromycin A 6,9-hemiketal [EM748]”, for which the “viral production in M-MΦ at 30 μM” value is “inhibit almost completely viral production; also recorded: almost complete inhibition” and the “production of p24 protein in M-MΦ” value is “suppressed depending on the concentration of agent”.
In the same order, the values of `CC[C@@H](O)[C@@](C)(O)[C@@H]1OC(=O)[C@H](C)[C@@H](O[C@H]2C[C@@](C)(OC)[C@@H](O)[C@H](C)O2)[C@H](C)[C@@H](O[C@@H]2O[C@H](C)C[C@H](N3CCCCC3)[C@H]2O)[C@@]2(C)CC(C)=C(O2)[C@@H]1C` [EM734, de(3′-dimethylamino)-3′-piperidino-8,9-anhydro-pseudoerythromycin A 6,9-hemiketal] are “inhibit almost completely viral production; also recorded: almost complete inhibition” and “suppressed depending on the concentration of agent”.
Consider `CN[C@H]1C[C@@H](C)O[C@@H](O[C@@H]2[C@@H](C)[C@H](O[C@H]3C[C@@](C)(OC)[C@@H](O)[C@H](C)O3)[C@@H](C)C(=O)O[C@@H](C(C)O)[C@@H](C)C3=C(C)C[C@@]2(C)O3)[C@@H]1O` (stereo partly shown) [EM751, de(3′-N-methyl)-de[12-(1-hydroxypropyl)]-8,9-anhydro-pseudoerythromycin A 6,9-hemiketal], for which the “viral production in M-MΦ at 30 μM” value is recorded as “inhibit almost completely viral production; also recorded: almost complete inhibition” and the “production of p24 protein in M-MΦ” value was “suppressed depending on the concentration of agent”.
In the same order, the values of `CC[C@@H](O)[C@@](C)(O)[C@@H]1OC(=O)[C@H](C)[C@@H](O[C@H]2C[C@@](C)(OC)[C@@H](O)[C@H](C)O2)[C@H](C)[C@@H](O[C@@H]2O[C@H](C)C[C@H](N3CCOCC3)[C@H]2O)[C@@]2(C)CC(C)=C(O2)[C@@H]1C` [EM747, de(3′-dimethylamino)-3′-morpholino-8,9-anhydro-pseudoerythromycin A 6,9-hemiketal] are “inhibit almost completely viral production; also recorded: almost complete inhibition” and “suppressed depending on the concentration of agent”.
Turning to `CC[C@@H](O)[C@@](C)(O)[C@@H]1OC(=O)[C@H](C)[C@@H](O[C@H]2C[C@@](C)(OC)[C@@H](O)[C@H](C)O2)[C@H](C)[C@@H](O[C@@H]2O[C@H](C)C[C@H](N3CCCC3)[C@H]2O)[C@@]2(C)CC(C)=C(O2)[C@@H]1C` [EM735, de(3′-dimethylamino)-3′-pyrrolidino-8,9-anhydro-pseudoerythromycin A 6,9-hemiketal], the “viral production in M-MΦ at 30 μM” value is listed as “inhibit almost completely viral production; also recorded: almost complete inhibition” and the “production of p24 protein in M-MΦ” value is on record as “suppressed depending on the concentration of agent”.
Take `CCCNC1CC(C)OC(OC2C(C)C(OC3CC(C)(OC)C(O)C(C)O3)C(C)C(=O)OC(C(C)(O)C(O)CC)C(C)C3=C(C)CC2(C)O3)C1O` (stereo not shown) [EM730, bis-de(3′-N-methyl)-3′-N-propyl-8,9-anhydro-pseudo-erythromycin A 6,9-hemiketal]: the “viral production in M-MΦ at 30 μM” value is “inhibit almost completely viral production; also recorded: almost complete inhibition” and the “production of p24 protein in M-MΦ” value is recorded as “suppressed depending on the concentration of agent”.
In the same order, the values of “bis-de(3′-N-methyl)-3′-N-benzyl-8,9-anhydro-pseudo-erythromycin A 6,9-hemiketal [EM732]” are “inhibit almost completely viral production; also recorded: almost complete inhibition” and “suppressed depending on the concentration of agent”.
For the molecule “de[12-(1-hydroxypropyl)]-8,9-anhydro-pseudo-erythromycin A 6,9-hemiketal [EM746]”, the “viral production in M-MΦ at 30 μM” value is listed as “inhibit almost completely viral production; also recorded: almost complete inhibition” and the “production of p24 protein in M-MΦ” value was “suppressed depending on the concentration of agent”.

(Values after patent US7034005B2, “Use of agent for suppressing infection and proliferation of human immunodeficiency syndrome virus” (The Kitasato Institute, priority 2002, dated 2006).)
